Patent US20240200050A1, “AMINOACYL TRANSFER RNA SYNTHETASES” (Trustees of Tufts College, priority 2021, published 2024)

Experiments:
[1] = test system: ncAA-substituted synthetic antibody clones; experiment: UV-mediated photocrosslinking of ncAA-substituted synthetic antibody clones on the yeast surface; details: identical sets of crosslinking conditions
Protocol: (§1) Experiments were undertaken to expand the tools available for genetically encoding crosslinkable ncAAs in proteins produced in yeast. As described in the above examples, a large number of aminoacyl-tRNA synthetase (aaRS) variants were discovered that support translation with a broad set of ncAAs. Here, several of these aaRSs were evaluated alongside previously described variants to evaluate their support of protein translation with the ncAAs O-(2-bromoethyl)tyrosine (Obey), 4-benzoyl-1-phenylalanine (Bpa), or N^6-((2-(3-methyl-3H-diazirin-3-yl)ethoxy)carbonyl)-L-lysine (Photo-Lysine, Phk) (FIG. 12A). Although none of these ncAAs were used in any of the screening efforts described in the above Examples. several variants from the screens were nevertheless identified that supported translation at moderate to high efficiencies with Obey and Phk. […] The potential utility of these spontaneously crosslinkable and photocrosslinkable ncAAs was also investigated. […] The display and binding activities of these peptides were confirmed. […] For the cases of Phk and Bpa, photocrosslinkability on the yeast surface was investigated utilizing ncAA-substituted synthetic antibody clones and alongside AzF-substituted clones known to undergo UV-mediated crosslinking.

antigen = experiment: Antigen binding of yeast-displayed synthetic antibody fragments substituted with ncAAs; details: ncAA incorporated into yeast-displayed synthetic antibody fragments
Protocol: as §1

streptavidin = streptavidin (Streptomyces avidinii, UniProt P22629); experiment: Display and binding of ncAA-substituted anti-streptavidin peptides on the yeast surface
Protocol: as §1

| antigen binding of ncAA-substituted constructs (in words) (antigen) | Compound | crosslinking on the yeast surface (in words) [1] | display and binding activities of ncAA-substituted peptides (in words) (streptavidin) |
| --- | --- | --- | --- |
|  | [N-]=[N+]=Nc1ccc(C[C@H](N)C(=O)O)cc1 [AzF, p-azido-L-phenylalanine] | clear evidence |  |
| retained antigen binding | N[C@@H](Cc1ccc(C(=O)c2ccccc2)cc1)C(=O)O [Bpa, 4-benzoyl-1-phenylalanine] | clear evidence |  |
|  | C#CCOc1ccc(C[C@H](N)C(=O)O)cc1 [OPG, p-propargyloxy-L-phenylalanine] |  | confirmed |
| retained antigen binding | CC1(CCOC(=O)NCCCC[C@H](N)C(=O)O)N=N1 [Phk, N^6-((2-(3-methyl-3H-diazirin-3-yl)ethoxy)carbonyl)-L-lysine] | did not appear to undergo detectable crosslinking |  |

| Compound | antigen binding of ncAA-substituted constructs (in words) (antigen) | crosslinking on the yeast surface (in words) [1] | display and binding activities of ncAA-substituted peptides (in words) (streptavidin) |
| --- | --- | --- | --- |
| N[C@@H](Cc1ccc(OCCBr)cc1)C(=O)O [Obey, O-(2-Bromoethyl)-L-tyrosine] | retained antigen binding |  | confirmed |
